{
  "source": "patent US20140199714A1",
  "about": "“METHOD FOR DETECTING CANCER CELLS METASTASIZING INTO SENTINEL LYMPH NODE” (SHINSHU UNIVERSITY, priority 2008, published 2014)",
  "format_in_all_cases": "cell-based",
  "key": {"E-selectin on human LECs": {"test_system": "E-selectin on human LECs", "test": "Immunohistochemical expression of E-selectin on cultured human LECs", "protocol": "(§1) Using an indirect immunohistochemical technique, the inventors examined the effects of the supernatants of culture medium of two kinds of carcinoma cells, MDA-MB-231 and MCF-7, on the expression of adhesion molecules such as E-selectin, P-selectin, vascular cell adhesion molecule (VCAM)-1, and intercellular adhesion molecule (ICAM)-1 on the human LECs. The carcinoma cells were plated in DMEM/F12 with 10% FBS, which was replaced the following day with DMEM/F12 with 3% FBS, and then collected after overnight culture. The collected solution was centrifuged at 2,000 rpm for 5 min. at 4° C. To examine the effects of the supernatants on the expression of the adhesion molecules on the human LECs, 1 mL of each collected solution was added to starvation culture medium, EBM-2 with 3% FBS of the human LECs, and then stimulated for 48 hrs. on the cells. In some experiments, the supernatant solutions at different concentrations (1/100 or 1/10,000 dilution) were constructed with appropriate volumes of DMEM/F12 with 3% FBS.\n(§2) Indirect immunohistochemical studies were performed on the cultured LECs seeded or glass slides coated with type I collagen, and then the cells were fixed with 3.3% formalin in phosphate-buffered saline solution (PBS), for 20 min. at room temperature. The cells were washed three times with PBS, and then incubated overnight at 4° C. with primary polyclonal human antisera to E-selectin/CD62E (dilution 10 μg/mL, available from R&D Systems, US), P-selectin/CD62P (dilution 10 μg/mL, available from R&D Systems, US), VCAM-1/CD106 (dilution 10 μg/mL, available from R&D Systems, US), and ICAM-1/CD54 (dilution 10 μg/mL, available from R&D Systems, US).\n(§3) Before primary staining, the cultured cells were permeabilized with 0.1% TRITON-X. After washing three times in PBS, the cells were incubated for 1 hr. at room temperature with 1:100 diluted ALEXA FLUOR 488 donkey anti-mouse IgG (available from Invitrogen, US). The nuclei of cultured cells were counter-stained and mounted with PROLONG GOLD antifade reagent with 4′-6-diamidine-2-phenylindole (DAPI) (available from Molecular Probes, US), examined by a fluorescent microscope (Leica, Switzerland), and photographed.\n(§4) Immunohistochemistry was performed on the cultured human LECs or the fresh-frozen SLNs isolated from the breast cancer patients. In brief, the cultured LECs were fixed with 10% formalin in the phosphate-buffered saline solution (PBS) at room temperature. The cells were incubated for 4 hrs. at room temperature with primary polyclonal human antisera platelet-endothelial cell adhesion molecule (PECAM)-1 (dilution 1:100, available from BD Biosciences, US), lymphatic vessel endothelial hyaluronan receptor (LYVE)-1 (dilution 1:50, available from RELIATech, Germany), PROX-1 (dilution 1:50, available from AngioBio, US), podoplanin (dilution 1:50, available from AngioBio, US), vascular endothelium growth factor receptor 3 (VEGF R3) (dilution 1:50, available from Santa Cruz, US), E-selectin/CD62E (dilution 1:50, available from R&D systems, US), P-selectin/CD62P (dilution 1:50, available from R&D systems, US), vascular cell adhesion molecule (VCAM)-1/CD106 (dilution 1:50, available from R&D systems, US), and intercellular adhesion molecule (ICAM)-1/CD54 (dilution 1:50, available from R&D systems, US). Before the staining, permeabilization of the cultured cells with 0.1% TRITON-X was performed. Then, the cells were stained using the following antibodies: ALEXA FLUOR 488 chicken anti-rabbit IgG or ALEXA FLUOR 488 donkey anti-mouse IgG (available from Invitrogen, US). The nuclei of the cultured cells were counter-stained and mounted with ProLong Gold antifade reagent with 4′-6-diamidine-2-phenylindole (DAPI) (available from Molecular Probes, US). The cultured cells were examined by a fluorescent microscope (available from Leica, Germany) and photographed. […]"}, "VCAM-1 on human LECs": {"test_system": "VCAM-1 on human LECs", "test": "Immunohistochemical expression of VCAM-1 on cultured human LECs", "protocol": "as §1, §2, §3, §4"}, "[1]": {"test_system": "attachment of MCF-7 carcinoma cells to human LECs", "test": "In vitro human LECs attachment assay (CCL2), MCF-7", "conditions": "18 hrs.-stimulation of 10 ng/mL CCL2 vs negative control with DMEM/F12; p<0.01", "protocol": "The human LECs were plated to form a monolayer on type I collagen-coated 35 mm plates and incubated to confluence in 5% O2, 5% CO2, and 90% N2 at 37° C. The LECs were kept in serum-starved medium containing EBM-2 with 3% FBS. Selected plates were treated with 10 ng/mL CCL2 for 18 hrs. In some experiments, the plates were stimulated by the serum-starved medium pretreated with neutralization of 10 ng/mL CCL2 with 1.0 μg/mL CCL2 specific antibody.\nIn some experiments, the plates were also treated with anti-human ICAM-1 antibody (available from R&D systems, US) for 30 min. after the 18 hrs. treatment with 10 ng/mL CCL2.\nThe two kinds of the breast carcinoma cells such as MDA-MB-231 and MCF-7 stained with PKH26 fluorescent dye (available from SIGMA, US) were then plated at 1×10^5 cells per plate and incubated for 30 min. at 37° C. Unbound cells were removed by aspiration, and the plates were washed with EBM-2 three times. The attachment of the carcinoma cells was quantified by counting the number of cells under ×100 magnification using a Leica microscope."}, "[2]": {"test_system": "ICAM-1 protein in human LECs", "test": "Western blot analysis of ICAM-1 protein in human LECs", "conditions": "18 hrs.-stimulation of 10 ng/mL CCL2", "protocol": "Western blot analysis was performed to quantitatively evaluate the CCL2-mediated ICAM-1 expression on the cultured human LECs. The cells were dissolved in M-PER (Mammalian Protein Extraction Reagent available from Thermo Fisher Scientific Inc., US) and centrifuged at 14,000 r.p.m. for 10 min. A 15 μg sample of the total cell lysate was resolved in SDS sample buffer for sodium dodecyl sulfate-polyacrylamide gel electrophoresis (SDS-PAGE) and transferred to an polyvinylidene difluoride (PVDF) membrane (available from Atto Corporation, Japan), where it was incubated for 45 min The membrane was probed with the anti-ICAM-1 antiserum (dilution 1:1000, available from Cell Signaling Technology Inc., US) and then incubated with anti-rabbit immunoglobulin G (IgG) horseradish peroxidase conjugated antibody. The same membrane was reprobed with monoclonal anti-actin antibody (available from Santa Cruz Biotechnology Inc., US) and then visualized with an ECL-Western blotting detection system (available from Amersham Bioscience Inc., UK)."}, "[3]": {"conditions": "4 hrs-stimulation of 10 ng/mL CCL2"}, "[4]": {"conditions": "18 hrs.-stimulation with 10 ng/mL chemokine"}},
  "data": [
    {"substance": "CCL2: chemokine CCL2", "values": [
      {"measurement": "immunoreaction of anti-E-selectin", "setting": "E-selectin on human LECs; 10 ng/mL CCL2, stimulation time increased to 18 hrs. and 48 hrs.", "result": "markedly decreased"},
      {"measurement": "staining with E-selectin antiserum on LECs", "setting": "E-selectin on human LECs; [3]", "result": "Slight staining"},
      {"measurement": "expression of E-selectin on human LECs", "setting": "E-selectin on human LECs; [4]", "result": "Little or no expression"},
      {"measurement": "expression of VCAM-1 on human LECs", "setting": "VCAM-1 on human LECs; [3]", "result": "no or little expression"},
      {"measurement": "expression of VCAM-1 on human LECs", "setting": "VCAM-1 on human LECs; [4]", "result": "Little or no expression"},
      {"measurement": "in vitro attachment of MCF-7 to human LECs", "setting": "[1]", "result": "significant increase"},
      {"measurement": "expression of ICAM-1 protein", "setting": "[2]", "result": "significant expression"}
    ]}
  ]
}
